The values that follow are results of earlier work, collected in patent US8076148B2, “Cytochrome c protein and assay” (GE Healthcare UK Limited, priority 2003, dated 2011).

In data set [1] the test system is rat pheochromocytoma-6 (PC6) cells. As to conditions: PC6 cells expressing rat cytochrome c-GFP.
The test system of a further data set is caspase-9. As to conditions: in vitro.
Another data set has as its target T1, Apaf-1 (Homo sapiens, UniProt O14727).
T1 sequence (O14727 1-1248): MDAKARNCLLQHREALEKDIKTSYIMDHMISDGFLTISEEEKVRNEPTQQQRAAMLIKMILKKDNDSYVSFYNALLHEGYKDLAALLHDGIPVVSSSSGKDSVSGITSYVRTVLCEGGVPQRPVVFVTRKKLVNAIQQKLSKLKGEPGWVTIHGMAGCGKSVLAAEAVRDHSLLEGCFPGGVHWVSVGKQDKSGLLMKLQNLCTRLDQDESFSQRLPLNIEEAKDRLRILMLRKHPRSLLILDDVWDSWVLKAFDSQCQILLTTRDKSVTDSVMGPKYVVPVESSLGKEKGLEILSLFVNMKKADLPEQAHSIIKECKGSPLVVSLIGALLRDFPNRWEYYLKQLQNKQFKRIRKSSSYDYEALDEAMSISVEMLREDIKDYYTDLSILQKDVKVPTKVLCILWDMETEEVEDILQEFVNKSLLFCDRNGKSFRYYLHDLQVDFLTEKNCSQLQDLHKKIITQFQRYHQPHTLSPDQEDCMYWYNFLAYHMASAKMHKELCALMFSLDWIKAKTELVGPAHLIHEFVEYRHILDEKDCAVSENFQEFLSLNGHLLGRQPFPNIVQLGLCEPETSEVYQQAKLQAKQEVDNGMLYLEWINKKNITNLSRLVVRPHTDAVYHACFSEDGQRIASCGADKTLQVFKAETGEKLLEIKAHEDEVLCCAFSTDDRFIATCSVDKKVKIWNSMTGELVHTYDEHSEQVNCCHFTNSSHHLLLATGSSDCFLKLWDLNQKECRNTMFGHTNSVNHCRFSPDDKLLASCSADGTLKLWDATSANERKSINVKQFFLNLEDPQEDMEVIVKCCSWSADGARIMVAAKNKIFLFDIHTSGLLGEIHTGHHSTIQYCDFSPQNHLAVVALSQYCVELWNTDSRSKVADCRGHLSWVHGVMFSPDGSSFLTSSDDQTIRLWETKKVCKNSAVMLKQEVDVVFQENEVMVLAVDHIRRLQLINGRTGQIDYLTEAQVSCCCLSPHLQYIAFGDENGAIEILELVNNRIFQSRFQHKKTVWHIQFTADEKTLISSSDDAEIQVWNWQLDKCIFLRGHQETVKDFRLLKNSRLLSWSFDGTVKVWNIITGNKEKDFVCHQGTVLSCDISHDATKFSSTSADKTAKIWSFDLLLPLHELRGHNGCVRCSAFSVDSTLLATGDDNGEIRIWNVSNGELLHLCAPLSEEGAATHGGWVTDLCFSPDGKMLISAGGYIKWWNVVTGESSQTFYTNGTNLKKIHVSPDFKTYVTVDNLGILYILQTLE
The following applies: in vitro.

Take `CN[C@@H]1C[C@H]2O[C@@](C)([C@@H]1OC)n1c3ccccc3c3c4c(c5c6ccccc6n2c5c31)C(=O)NC4` [staurosporine]: the “release of cytochrome c-GFP fusion from the mitochondria” value in data set [1] is recorded as “led to release of the fusion from the mitochondria”.
For “Horse cytochrome c: horse wild type cytochrome c, highly homologous to human cytochrome c”, in the data set on caspase-9, the caspase activation result is “can initiate caspase activation”.
“K72A: cytochrome c mutant, lysine 72 to alanine, from the literature in vitro studies (Kluck et al.; Yu et al.)”: the “binding to Apaf-1” value in the data set with Apaf-1 is reported as “no detectable binding”. In addition, in the data set on caspase-9, the caspase activation entry is listed as “no detectable binding or caspase-9 activation”.
Consider “yeast cytochrome c: yeast wild type cytochrome c”, for which the “binding to Apaf-1” value with Apaf-1 is listed as “did not measurably bind”. In addition, the caspase activation entry with caspase-9 is “nor activate caspase”.
